Reference: article PMC6193938, “Characterization of a novel AICARFT inhibitor which potently elevates ZMP and has anti-tumor activity in murine models” (Scientific Reports, 2018)

Legend:
[1] = target: T1, MLK1 (Homo sapiens, UniProt P80192); assay: CEREP protein kinase assay; type: biochemical
T1 construct: purchased CEREP Panlabs (Eurofins)

[2] = tested on: AMPKA; assay: CEREP protein kinase assay; type: biochemical
[3] = target: T2, TRKA (Homo sapiens, UniProt P04629); assay: CEREP protein kinase assay; type: biochemical
T2 construct: purchased CEREP Panlabs (Eurofins)

[4] = target: T3, FLT1 (Homo sapiens, UniProt P17948); assay: CEREP protein kinase assay; type: biochemical
T3 construct: purchased CEREP Panlabs (Eurofins)

[5] = target: T4, MNK2 (Homo sapiens, UniProt Q9HBH9); assay: CEREP protein kinase assay; type: biochemical
T4 construct: purchased CEREP Panlabs (Eurofins)

[6] = target: T5, LCK (Homo sapiens, UniProt P06239); assay: CEREP protein kinase assay; type: biochemical
T5 construct: purchased CEREP Panlabs (Eurofins)

[7] = target: T6, RSK3 (Homo sapiens, UniProt Q15349); assay: CEREP protein kinase assay; type: biochemical
T6 construct: purchased CEREP Panlabs (Eurofins)

[8] = target: T7, EGFR (Homo sapiens, UniProt P00533); assay: CEREP protein kinase assay; type: biochemical
T7 construct: purchased CEREP Panlabs (Eurofins)

[9] = target: T8, AKT3 (Homo sapiens, UniProt Q9Y243); assay: CEREP protein kinase assay; type: biochemical
T8 construct: purchased CEREP Panlabs (Eurofins)

[10] = target: T9, FER (Homo sapiens, UniProt P16591); assay: CEREP protein kinase assay; type: biochemical
T9 construct: purchased CEREP Panlabs (Eurofins)

[11] = tested on: A9 tumor; assay: Antitumor efficacy and tumor metabolites, A9 tumor model; type: in vivo, mouse; conditions: A9 tumors
[12] = target: T10, ERK2 (Homo sapiens, UniProt P28482); assay: CEREP protein kinase assay; type: biochemical
T10 construct: purchased CEREP Panlabs (Eurofins)

[13] = target: T11, DYRK2 (Homo sapiens, UniProt Q92630); assay: CEREP protein kinase assay; type: biochemical
T11 construct: purchased CEREP Panlabs (Eurofins)
T11 sequence (Q92630 1-601): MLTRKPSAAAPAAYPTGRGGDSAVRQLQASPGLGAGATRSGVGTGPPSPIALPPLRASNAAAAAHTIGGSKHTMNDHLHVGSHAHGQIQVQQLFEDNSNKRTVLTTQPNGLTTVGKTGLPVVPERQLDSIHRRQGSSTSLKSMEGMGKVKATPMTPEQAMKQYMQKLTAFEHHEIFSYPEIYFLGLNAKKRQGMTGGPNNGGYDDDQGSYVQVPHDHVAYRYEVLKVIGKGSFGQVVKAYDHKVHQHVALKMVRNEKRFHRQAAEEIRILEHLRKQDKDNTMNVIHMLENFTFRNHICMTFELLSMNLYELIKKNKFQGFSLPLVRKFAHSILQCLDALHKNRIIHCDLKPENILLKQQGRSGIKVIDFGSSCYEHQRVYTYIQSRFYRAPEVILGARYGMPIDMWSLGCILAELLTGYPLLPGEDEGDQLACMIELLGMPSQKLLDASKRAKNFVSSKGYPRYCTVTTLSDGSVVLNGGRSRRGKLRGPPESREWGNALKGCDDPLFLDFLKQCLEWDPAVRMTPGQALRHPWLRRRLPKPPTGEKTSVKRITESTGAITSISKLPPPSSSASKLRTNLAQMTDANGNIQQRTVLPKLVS

[14] = target: T12, JAK3 (Homo sapiens, UniProt P52333); assay: CEREP protein kinase assay; type: biochemical
T12 construct: purchased CEREP Panlabs (Eurofins)
T12 sequence (P52333 1-1124): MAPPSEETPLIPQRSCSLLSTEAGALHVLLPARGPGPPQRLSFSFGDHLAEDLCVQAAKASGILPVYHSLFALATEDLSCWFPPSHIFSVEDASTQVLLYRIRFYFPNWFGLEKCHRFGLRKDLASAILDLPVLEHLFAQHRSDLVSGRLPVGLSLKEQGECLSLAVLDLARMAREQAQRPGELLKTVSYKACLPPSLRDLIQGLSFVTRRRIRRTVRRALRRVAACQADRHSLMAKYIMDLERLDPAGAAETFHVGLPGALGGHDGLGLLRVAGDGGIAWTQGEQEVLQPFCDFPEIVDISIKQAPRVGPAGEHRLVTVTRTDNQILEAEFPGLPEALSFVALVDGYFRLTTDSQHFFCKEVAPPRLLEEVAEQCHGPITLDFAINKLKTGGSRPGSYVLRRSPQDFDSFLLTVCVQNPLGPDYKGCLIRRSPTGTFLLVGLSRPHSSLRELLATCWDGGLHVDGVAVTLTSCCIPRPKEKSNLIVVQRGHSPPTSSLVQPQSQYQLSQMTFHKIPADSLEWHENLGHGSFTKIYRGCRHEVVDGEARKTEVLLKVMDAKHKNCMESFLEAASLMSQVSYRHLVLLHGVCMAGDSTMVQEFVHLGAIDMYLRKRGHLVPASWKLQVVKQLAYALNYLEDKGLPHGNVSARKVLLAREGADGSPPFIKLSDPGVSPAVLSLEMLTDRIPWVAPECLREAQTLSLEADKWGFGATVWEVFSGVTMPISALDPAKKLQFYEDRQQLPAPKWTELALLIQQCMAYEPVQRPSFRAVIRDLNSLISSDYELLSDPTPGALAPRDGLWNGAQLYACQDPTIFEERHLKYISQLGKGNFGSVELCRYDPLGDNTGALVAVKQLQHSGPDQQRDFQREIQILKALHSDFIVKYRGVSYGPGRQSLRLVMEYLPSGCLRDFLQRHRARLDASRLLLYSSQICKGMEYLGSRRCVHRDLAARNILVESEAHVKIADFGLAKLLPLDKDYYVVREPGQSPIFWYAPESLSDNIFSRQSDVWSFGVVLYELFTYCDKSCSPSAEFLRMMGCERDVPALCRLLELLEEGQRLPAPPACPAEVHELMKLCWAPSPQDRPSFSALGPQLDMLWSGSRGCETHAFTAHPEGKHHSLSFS

[15] = target: T13, IRK (Homo sapiens, UniProt P06213); assay: CEREP protein kinase assay; type: biochemical
T13 construct: purchased CEREP Panlabs (Eurofins)

T5 sequence (P06239 whole entry): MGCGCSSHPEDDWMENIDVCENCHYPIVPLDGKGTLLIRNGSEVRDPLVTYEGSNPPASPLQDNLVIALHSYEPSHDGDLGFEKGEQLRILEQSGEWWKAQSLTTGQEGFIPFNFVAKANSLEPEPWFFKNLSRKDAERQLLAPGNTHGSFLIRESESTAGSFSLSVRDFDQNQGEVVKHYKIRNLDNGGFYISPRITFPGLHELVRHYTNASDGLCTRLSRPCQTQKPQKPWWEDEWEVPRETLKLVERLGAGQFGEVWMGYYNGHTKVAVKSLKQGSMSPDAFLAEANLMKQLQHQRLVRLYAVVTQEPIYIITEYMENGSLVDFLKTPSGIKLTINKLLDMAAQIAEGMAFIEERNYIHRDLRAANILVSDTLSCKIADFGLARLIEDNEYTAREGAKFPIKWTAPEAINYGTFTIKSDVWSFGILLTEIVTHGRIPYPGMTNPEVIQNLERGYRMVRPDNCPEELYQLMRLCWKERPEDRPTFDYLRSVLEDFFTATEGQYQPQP
T4 sequence (Q9HBH9 whole entry): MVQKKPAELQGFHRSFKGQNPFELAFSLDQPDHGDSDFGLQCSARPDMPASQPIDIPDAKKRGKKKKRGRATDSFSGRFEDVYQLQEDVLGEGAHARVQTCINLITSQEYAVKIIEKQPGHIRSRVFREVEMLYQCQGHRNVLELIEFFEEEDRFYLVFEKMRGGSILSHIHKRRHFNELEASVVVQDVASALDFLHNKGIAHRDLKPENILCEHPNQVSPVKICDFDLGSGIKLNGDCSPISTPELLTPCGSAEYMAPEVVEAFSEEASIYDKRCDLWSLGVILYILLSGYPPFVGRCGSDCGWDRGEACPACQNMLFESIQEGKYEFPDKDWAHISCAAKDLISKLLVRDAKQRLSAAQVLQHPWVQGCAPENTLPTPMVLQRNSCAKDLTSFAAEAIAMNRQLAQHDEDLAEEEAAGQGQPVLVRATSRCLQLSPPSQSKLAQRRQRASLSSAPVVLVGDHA
T8 sequence (Q9Y243 whole entry): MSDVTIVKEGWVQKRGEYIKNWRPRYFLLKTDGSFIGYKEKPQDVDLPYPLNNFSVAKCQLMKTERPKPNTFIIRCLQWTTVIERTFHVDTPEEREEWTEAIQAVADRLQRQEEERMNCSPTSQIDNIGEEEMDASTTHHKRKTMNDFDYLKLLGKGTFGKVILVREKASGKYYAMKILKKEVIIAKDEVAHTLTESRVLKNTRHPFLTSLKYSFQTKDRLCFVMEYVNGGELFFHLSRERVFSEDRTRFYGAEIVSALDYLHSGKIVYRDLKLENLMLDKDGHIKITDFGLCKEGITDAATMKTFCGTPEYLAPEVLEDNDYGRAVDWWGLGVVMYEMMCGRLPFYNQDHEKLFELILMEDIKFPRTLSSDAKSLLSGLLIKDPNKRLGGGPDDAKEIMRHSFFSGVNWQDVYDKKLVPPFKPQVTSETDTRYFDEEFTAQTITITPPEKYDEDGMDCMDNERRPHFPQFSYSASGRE
T9 sequence (P16591 whole entry): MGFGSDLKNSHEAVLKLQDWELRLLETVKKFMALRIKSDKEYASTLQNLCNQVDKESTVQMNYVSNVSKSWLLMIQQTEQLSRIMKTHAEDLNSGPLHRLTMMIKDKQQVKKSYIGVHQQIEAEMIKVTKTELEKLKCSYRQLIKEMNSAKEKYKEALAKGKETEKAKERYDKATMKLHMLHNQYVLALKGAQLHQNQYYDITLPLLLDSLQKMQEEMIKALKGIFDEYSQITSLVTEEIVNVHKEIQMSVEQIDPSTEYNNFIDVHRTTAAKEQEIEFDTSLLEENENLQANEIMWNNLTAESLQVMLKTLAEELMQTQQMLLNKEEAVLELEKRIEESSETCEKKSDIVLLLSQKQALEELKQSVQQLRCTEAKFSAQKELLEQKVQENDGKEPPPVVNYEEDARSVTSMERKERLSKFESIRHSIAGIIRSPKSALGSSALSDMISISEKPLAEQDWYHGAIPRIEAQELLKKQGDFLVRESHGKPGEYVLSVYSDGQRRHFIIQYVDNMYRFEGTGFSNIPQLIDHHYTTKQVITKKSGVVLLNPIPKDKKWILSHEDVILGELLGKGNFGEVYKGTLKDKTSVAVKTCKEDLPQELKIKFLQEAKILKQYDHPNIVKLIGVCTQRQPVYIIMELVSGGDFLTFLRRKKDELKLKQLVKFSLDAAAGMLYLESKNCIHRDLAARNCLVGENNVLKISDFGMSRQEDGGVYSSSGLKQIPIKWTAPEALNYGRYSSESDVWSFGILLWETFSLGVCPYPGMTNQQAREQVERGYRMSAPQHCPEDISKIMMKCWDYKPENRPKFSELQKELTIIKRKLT
T2 sequence (P04629 33-796): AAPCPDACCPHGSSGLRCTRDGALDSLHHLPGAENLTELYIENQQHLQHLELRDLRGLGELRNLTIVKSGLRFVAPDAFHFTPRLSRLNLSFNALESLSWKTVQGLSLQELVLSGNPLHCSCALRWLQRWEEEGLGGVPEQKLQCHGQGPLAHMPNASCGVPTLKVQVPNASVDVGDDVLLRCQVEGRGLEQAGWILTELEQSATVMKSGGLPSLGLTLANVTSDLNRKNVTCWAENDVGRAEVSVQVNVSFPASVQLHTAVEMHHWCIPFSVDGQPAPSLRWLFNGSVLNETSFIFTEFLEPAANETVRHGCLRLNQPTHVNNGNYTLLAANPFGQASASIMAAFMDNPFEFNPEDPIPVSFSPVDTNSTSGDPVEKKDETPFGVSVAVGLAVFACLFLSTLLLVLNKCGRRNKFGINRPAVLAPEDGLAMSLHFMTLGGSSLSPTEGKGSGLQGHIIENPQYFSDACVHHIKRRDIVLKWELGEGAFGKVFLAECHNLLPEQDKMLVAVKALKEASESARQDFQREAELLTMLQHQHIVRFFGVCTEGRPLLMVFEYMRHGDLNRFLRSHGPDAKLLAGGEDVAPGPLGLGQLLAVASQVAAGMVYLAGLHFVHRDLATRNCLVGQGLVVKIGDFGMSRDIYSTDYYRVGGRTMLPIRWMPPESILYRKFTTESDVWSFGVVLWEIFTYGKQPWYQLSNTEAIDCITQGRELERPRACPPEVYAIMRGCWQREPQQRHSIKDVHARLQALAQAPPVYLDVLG
T3 sequence (P17948 27-1338): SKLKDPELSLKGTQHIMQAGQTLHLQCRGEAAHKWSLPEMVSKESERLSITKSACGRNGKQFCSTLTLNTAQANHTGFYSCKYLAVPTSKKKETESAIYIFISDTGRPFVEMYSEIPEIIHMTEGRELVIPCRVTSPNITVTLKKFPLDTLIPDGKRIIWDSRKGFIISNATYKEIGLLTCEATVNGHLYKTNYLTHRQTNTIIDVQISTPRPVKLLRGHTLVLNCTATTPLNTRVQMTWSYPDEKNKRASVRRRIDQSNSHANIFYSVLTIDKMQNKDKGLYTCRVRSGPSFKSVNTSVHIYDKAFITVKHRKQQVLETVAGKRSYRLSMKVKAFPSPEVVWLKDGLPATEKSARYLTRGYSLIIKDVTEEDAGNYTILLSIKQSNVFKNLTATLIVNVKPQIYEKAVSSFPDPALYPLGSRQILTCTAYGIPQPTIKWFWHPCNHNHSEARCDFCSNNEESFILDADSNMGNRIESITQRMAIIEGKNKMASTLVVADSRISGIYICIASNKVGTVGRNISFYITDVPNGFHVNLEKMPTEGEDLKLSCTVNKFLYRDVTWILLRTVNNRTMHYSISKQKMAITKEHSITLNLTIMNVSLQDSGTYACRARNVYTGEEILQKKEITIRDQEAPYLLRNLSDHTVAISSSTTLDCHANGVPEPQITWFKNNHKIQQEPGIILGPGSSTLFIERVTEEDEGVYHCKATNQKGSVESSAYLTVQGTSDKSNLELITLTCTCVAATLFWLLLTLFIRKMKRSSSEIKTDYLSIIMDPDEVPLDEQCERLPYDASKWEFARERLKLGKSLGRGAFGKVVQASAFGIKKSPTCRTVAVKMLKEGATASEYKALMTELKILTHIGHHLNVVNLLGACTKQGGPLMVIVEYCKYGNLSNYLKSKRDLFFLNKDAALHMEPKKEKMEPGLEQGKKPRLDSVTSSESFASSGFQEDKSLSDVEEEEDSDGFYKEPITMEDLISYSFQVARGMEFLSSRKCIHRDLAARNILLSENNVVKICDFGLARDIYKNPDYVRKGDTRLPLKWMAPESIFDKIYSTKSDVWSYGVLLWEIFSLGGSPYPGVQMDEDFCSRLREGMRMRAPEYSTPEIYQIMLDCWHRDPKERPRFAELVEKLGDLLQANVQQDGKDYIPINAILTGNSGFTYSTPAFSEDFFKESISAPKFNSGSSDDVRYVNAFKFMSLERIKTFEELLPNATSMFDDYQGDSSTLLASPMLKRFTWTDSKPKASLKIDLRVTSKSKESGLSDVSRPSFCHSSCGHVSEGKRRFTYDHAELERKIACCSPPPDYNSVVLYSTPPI
T10 sequence (P28482 whole entry): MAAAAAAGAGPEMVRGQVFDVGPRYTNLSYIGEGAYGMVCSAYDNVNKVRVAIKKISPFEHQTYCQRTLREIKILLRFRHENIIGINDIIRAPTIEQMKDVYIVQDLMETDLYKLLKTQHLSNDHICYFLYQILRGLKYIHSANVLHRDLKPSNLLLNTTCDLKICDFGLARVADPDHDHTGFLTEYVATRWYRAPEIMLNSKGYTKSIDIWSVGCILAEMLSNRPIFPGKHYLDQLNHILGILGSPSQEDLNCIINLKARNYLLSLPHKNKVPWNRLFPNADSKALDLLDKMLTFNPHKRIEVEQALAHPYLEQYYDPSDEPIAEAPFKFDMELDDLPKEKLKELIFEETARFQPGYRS

SMILES: O=c1[nH]ccc2cc(F)c(NS(=O)(=O)c3ccc(N4CC[C@@H](O)C4)s3)cc12 [LSN3213128, N-(6-Fluoro-1-oxo-1,2-dihydroisoquinolin-7-yl)-5-[(3R)-3-hydroxypyrrolidin-1-yl]thiophene-2-sulfonamide]
- inhibition at 0.2 µM ([1]; @ 0.2 uM): -7.95%
- inhibition at 2 µM ([1]; @ 2 uM): 2.73%
- inhibition at 20 µM ([1]; @ 20 uM): 3.99%
- % Inhibition ([2]; @ 0.2 uM): -3.69 (26.6, n=2) %
- % Inhibition ([2]; @ 2 uM): 9.14 (16.7, n=2) %
- % Inhibition ([2]; @ 20 uM): 9.08 (3.34, n=2) %
- inhibition at 0.2 µM ([3]; @ 0.2 uM): -1.15%
- inhibition at 2 µM ([3]; @ 2 uM): 8.27%
- inhibition at 20 µM ([3]; @ 20 uM): 10.1%
- inhibition at 0.2 µM ([4]; @ 0.2 uM): -9.26%
- inhibition at 2 µM ([4]; @ 2 uM): 4.29%
- inhibition at 20 µM ([4]; @ 20 uM): 33.8%
- inhibition at 0.2 µM ([5]; @ 0.2 uM): -1.93%
- inhibition at 2 µM ([5]; @ 2 uM): 4.7%
- inhibition at 20 µM ([5]; @ 20 uM): 5.92%
- inhibition at 0.2 µM ([6]; @ 0.2 uM): -24.6%
- inhibition at 2 µM ([6]; @ 2 uM): -4.9%
- inhibition at 20 µM ([6]; @ 20 uM): 2.61%
- inhibition at 0.2 µM ([7]; @ 0.2 uM): -5.85%
- inhibition at 2 µM ([7]; @ 2 uM): -1.32%
- inhibition at 20 µM ([7]; @ 20 uM): 9.07%
- inhibition at 0.2 µM ([8]; @ 0.2 uM): -11.7%
- inhibition at 2 µM ([8]; @ 2 uM): 2.87%
- inhibition at 20 µM ([8]; @ 20 uM): -0.46%
- inhibition at 0.2 µM ([9]; @ 0.2 uM): -0.699%
- inhibition at 2 µM ([9]; @ 2 uM): 5.67%
- inhibition at 20 µM ([9]; @ 20 uM): 13%
- inhibition at 0.2 µM ([10]; @ 0.2 uM): 3.36%
- inhibition at 2 µM ([10]; @ 2 uM): 18%
- inhibition at 20 µM ([10]; @ 20 uM): 11.1%
- tumor dUMP ([11]; 100 mg/kg QDx12 dose group): 0.72 ± 0.41 µM
- tumor ZMP levels ([11]; after 12 days of dosing, 100 mg/kg): dramatically elevated
- inhibition at 0.2 µM ([12]; @ 0.2 uM): -4.25%
- inhibition at 2 µM ([12]; @ 2 uM): 11.1%
- inhibition at 20 µM ([12]; @ 20 uM): 60.3%
- inhibition at 0.2 µM ([13]; @ 0.2 uM): -2.01%
- inhibition at 2 µM ([13]; @ 2 uM): -0.829%
- inhibition at 20 µM ([13]; @ 20 uM): 11.7%
- inhibition at 0.2 µM ([14]; @ 0.2 uM): -5.81%
- inhibition at 2 µM ([14]; @ 2 uM): 2.78%
- inhibition at 20 µM ([14]; @ 20 uM): 28.6%
- inhibition at 0.2 µM ([15]; @ 0.2 uM): -0.8%
- inhibition at 2 µM ([15]; @ 2 uM): 10.6%
- inhibition at 20 µM ([15]; @ 20 uM): 12.9%
